Assay results as given in PubChem BioAssay AID248 (DTP/NCI, 2004).
Where “and” joins values, the source holds several entries; their conditions need not be identical. Identical values can stand only once. Toxic doses and inconclusive results are not listed. Rule as the data show it: active = T/C of 150% or more; inactive = T/C below 125%. Square brackets hold non-standard residues; d marks the D form. Peptide text beside a SMILES is read from it. * marks the point of attachment. Cbz = O=C(OCc1ccccc1)*; Abu = CC[CH](N)C(=O)O; OBn = c1ccc(CO*)cc1

Tested on: L1210 leukemia ip in BDF1 mice, survival T/C
Assay: NCI In Vivo Anticancer Drug Screen. Data for tumor model L1210 Leukemia (intraperitoneal) in B6D2F1 (BDF1) mice
Conditions: endpoint: mean survival time, higher = longer survival
How it was run: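 Transplanted-tumor mice were given test agent; controls received vehicle only. Survival readings from the two groups were divided (treated over control).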

[1] = dose: 100.0 mg/kg/injection, schedule: Q04DX002 (ip), vehicle: Klucel (hydroxypropylcellulose) (HPC)
[2] = dose: 200.0 mg/kg/injection, schedule: Q04DX002 (ip), vehicle: Klucel (hydroxypropylcellulose) (HPC)
[3] = dose: 400.0 mg/kg/injection, schedule: Q04DX002 (ip), vehicle: Klucel (hydroxypropylcellulose) (HPC)
[4] = dose: 100.0 mg/kg/injection, schedule: Q01DX009 (ip), vehicle: saline with Tween-80
[5] = dose: 100.0 mg/kg/injection, schedule: Q04DX003 (ip), vehicle: saline with Tween-80
[6] = dose: 200.0 mg/kg/injection, schedule: Q01DX009 (ip), vehicle: saline with Tween-80
[7] = dose: 200.0 mg/kg/injection, schedule: Q04DX003 (ip), vehicle: saline with Tween-80
[8] = dose: 400.0 mg/kg/injection, schedule: Q04DX003 (ip), vehicle: saline with Tween-80
[9] = dose: 100.0 mg/kg/injection, schedule: Q01DX009 (ip), vehicle: saline
[10] = dose: 100.0 mg/kg/injection, schedule: Q04DX003 (ip), vehicle: saline
[11] = dose: 200.0 mg/kg/injection, schedule: Q01DX009 (ip), vehicle: saline
[12] = dose: 200.0 mg/kg/injection, schedule: Q04DX003 (ip), vehicle: saline
[13] = dose: 400.0 mg/kg/injection, schedule: Q01DX009 (ip), vehicle: saline
[14] = dose: 400.0 mg/kg/injection, schedule: Q04DX003 (ip), vehicle: saline
[15] = dose: 100.0 mg/kg/injection, schedule: Q01DX001 (ip), vehicle: saline
[16] = dose: 200.0 mg/kg/injection, schedule: Q01DX001 (ip), vehicle: saline

Measured: T/C

COc1ccc(C(O)c2cc3ccccc3[nH]2)cc1 (centres undefined)
inactive: [1] 95 % of control | [2] 109 % of control | [3] 106 % of control

CCC(C)C1(C)OC1C(=O)OC (centres undefined)
inactive: [4] 93 % of control | [5] 100 % of control | [6] 86 % of control | [7] 101 % of control | [8] 97 % of control

O=C(O)CCC1CCC(=O)OC1=O (centres undefined)
inactive: [9] 101 % of control | [10] 98 % of control | [11] 100 % of control | [12] 89 % of control | [13] 99 % of control | [14] 94 % of control

CC(=O)OCC1OC(N2C(=O)/C(=C/c3cccs3)SC2=S)C(OC(C)=O)C(OC(C)=O)C1OC(C)=O (centres undefined)
inactive: dose: 25.0 mg/kg/injection, schedule: Q01DX005 (ip), vehicle: other 96 % of control | dose: 50.0 mg/kg/injection, schedule: Q01DX005 (ip), vehicle: other 100 % of control | dose: 100.0 mg/kg/injection, schedule: Q01DX005 (ip), vehicle: other 97 % of control | dose: 200.0 mg/kg/injection, schedule: Q01DX005 (ip), vehicle: other 88 % of control

CCCCCCC1CCCc2ccc(CCCC)cc21 (centres undefined)
inactive: dose: 50.0 mg/kg/injection, schedule: Q01DX001 (ip), vehicle: saline 110 % of control | [15] 106 % of control | [16] 101 % of control | dose: 400.0 mg/kg/injection, schedule: Q01DX001 (ip), vehicle: saline 101 % of control

O=[N+]([O-])c1ccc2c(c1)n([O-])c1ccccc1[n+]2=O
inactive: dose: 50.0 mg/kg/injection, schedule: Q04DX003 (ip), vehicle: Klucel (hydroxypropylcellulose) (HPC) 89 % of control | dose: 100.0 mg/kg/injection, schedule: Q01DX001 (ip), vehicle: Klucel (hydroxypropylcellulose) (HPC) 97 % of control | dose: 100.0 mg/kg/injection, schedule: Q04DX003 (ip), vehicle: Klucel (hydroxypropylcellulose) (HPC) 90 % of control and 92 % of control | dose: 200.0 mg/kg/injection, schedule: Q01DX001 (ip), vehicle: Klucel (hydroxypropylcellulose) (HPC) 95 % of control | dose: 200.0 mg/kg/injection, schedule: Q04DX003 (ip), vehicle: Klucel (hydroxypropylcellulose) (HPC) 97 % of control and 101 % of control

CC12CC(O)C(C=C1c1ccccc1)C2(C)C (centres undefined)
inactive: dose: 100.0 mg/kg/injection, schedule: Q04DX002 (ip), vehicle: other 86 % of control | dose: 200.0 mg/kg/injection, schedule: Q04DX002 (ip), vehicle: other 93 % of control | dose: 400.0 mg/kg/injection, schedule: Q04DX002 (ip), vehicle: other 90 % of control

CCC(NC(=O)OCc1ccccc1)C(=O)NC(C(=O)OCc1ccccc1)C(C)C (centres undefined) (Cbz-[Abu]-Val-OBn; configuration not given here)
inactive: dose: 100.0 mg/kg/injection, schedule: Q01DX009 (ip), vehicle: Klucel (hydroxypropylcellulose) (HPC) 96 % of control | dose: 200.0 mg/kg/injection, schedule: Q01DX009 (ip), vehicle: Klucel (hydroxypropylcellulose) (HPC) 99 % of control | dose: 400.0 mg/kg/injection, schedule: Q01DX009 (ip), vehicle: Klucel (hydroxypropylcellulose) (HPC) 96 % of control

CCS(=O)(=O)c1ccc(NC(=O)OC2CC(C)CCC2C(C)C)cc1 (centres undefined)
inactive: dose: 100.0 mg/kg/injection, schedule: Q01DX001 (ip), vehicle: carboxymethylcellulose (CMC) 100 % of control | dose: 200.0 mg/kg/injection, schedule: Q01DX001 (ip), vehicle: carboxymethylcellulose (CMC) 102 % of control | dose: 400.0 mg/kg/injection, schedule: Q01DX001 (ip), vehicle: carboxymethylcellulose (CMC) 91 % of control

CCOP(=S)(NN=C1CCCCC1)OCC
inactive: [15] 104 % of control | [16] 101 % of control

CCc1cccc(CC)c1NC(=O)c1ccccc1Cl
inactive: [1] 102 % of control | [2] 97 % of control | [3] 94 % of control

CC1CS(=O)(=O)O1 (centres undefined)
inactive: dose: 100.0 mg/kg/injection, schedule: Q04DX002 (ip), vehicle: saline with Tween-80 114 % of control | dose: 200.0 mg/kg/injection, schedule: Q04DX002 (ip), vehicle: saline with Tween-80 105 % of control

O=C(O)Cc1sc(=O)[nH]c1O
inactive: [9] 96 % of control | [10] 102 % of control | [11] 96 % of control | [12] 96 % of control | [13] 99 % of control | [14] 106 % of control

NC(N)=N/N=C\c1ccc(/C=N/N=C(N)N)cc1
inactive: dose: 60.0 mg/kg/injection, schedule: Q01DX Z (oral), vehicle: saline 103 % of control | dose: 120.0 mg/kg/injection, schedule: Q01DX Z (oral), vehicle: saline 108 % of control | dose: 240.0 mg/kg/injection, schedule: Q01DX Z (oral), vehicle: saline 101 % of control | dose: 480.0 mg/kg/injection, schedule: Q01DX Z (oral), vehicle: saline 108 % of control

CCCCCCCCCCCCCCCCN(C)S(=O)(=O)c1ccc2sc(SC)[n+](C)c2c1 (tested in a mixture with another compound)
inactive: [4] 94 % of control | [5] 98 % of control | [6] 94 % of control | [7] 102 % of control | dose: 400.0 mg/kg/injection, schedule: Q01DX009 (ip), vehicle: saline with Tween-80 102 % of control | [8] 96 % of control
